Test results taken from PubChem BioAssay (NCI).
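Following 48 hours of exposure in 96-well plates, responses at five concentrations were used to interpolate endpoints linearly. GI50 = concentration required for 50% inhibition of growth. Definition used: TGI = concentration required for complete inhibition of growth.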

Key:
Assay in all cases: DTP human tumour cell line panel, 48 h
HCT-116 colon = tested on: HCT-116 colon
NCI-H226 lung = tested on: NCI-H226 lung
SNB-75 CNS = tested on: SNB-75 CNS
MDA-MB-435 = tested on: MDA-MB-435
OVCAR-8 ovarian = tested on: OVCAR-8 ovarian
KM12 colon = tested on: KM12 colon
SK-MEL-28 melanoma = tested on: SK-MEL-28 melanoma
OVCAR-5 ovarian = tested on: OVCAR-5 ovarian
UACC-257 melanoma = tested on: UACC-257 melanoma
EKVX NSCLC = tested on: EKVX NSCLC

| SMILES | GI50 (HCT-116 colon) [µM] | TGI (HCT-116 colon) [µM] | GI50 (NCI-H226 lung) [µM] | TGI (NCI-H226 lung) [µM] | GI50 (SNB-75 CNS) [µM] | TGI (SNB-75 CNS) [µM] | GI50 (MDA-MB-435) [µM] | TGI (MDA-MB-435) [µM] | GI50 (OVCAR-8 ovarian) [µM] | TGI (OVCAR-8 ovarian) [µM] | GI50 (KM12 colon) [µM] | TGI (KM12 colon) [µM] | GI50 (SK-MEL-28 melanoma) [µM] | TGI (SK-MEL-28 melanoma) [µM] | GI50 (OVCAR-5 ovarian) [µM] | TGI (OVCAR-5 ovarian) [µM] | GI50 (UACC-257 melanoma) [µM] | TGI (UACC-257 melanoma) [µM] | GI50 (EKVX NSCLC) [µM] | TGI (EKVX NSCLC) [µM] |
| --- | --- | --- | --- | --- | --- | --- | --- | --- | --- | --- | --- | --- | --- | --- | --- | --- | --- | --- | --- | --- |
| CN1CCN(CCCOc2cccc3nc(Nc4ccc(F)c(F)c4)ccc23)CC1 | 3.8 | 7.87 | 5.51 | 11.1 | 3.92 | 9.5 | 1.27 | 5.14 | 5.13 | 10.2 | 2.35 | 7.78 | 1.08 | 3.63 | 4.71 | 9.73 | 0.655 | 1.39 | 4.83 | 9.41 |
| CCc1nc2cc(/C=C/C(=O)NO)ccc2c(=O)n1CCc1ccc(OC)cc1 | 1.59 | 9.51 | 2.87 | 17.3 | 2.62 | 33.2 | 2.7 | 42.6 | 2.27 | 15.5 | 3.42 | > 100 | 3.31 | 15.1 | 2.5 | 30 | 2.93 | 9.33 | 3.91 | 43.9 |
| CCCCN1C(=O)/C(=c2\sc3n(c2=O)C2C(NN=3)N(CC)C(=O)N2CC)c2ccccc21 (stereo unspecified) | – | – | – | – | 0.258 | 1.56 | 0.255 | 0.655 | – | – | – | – | – | – | – | – | – | – | 1.38 | > 100 |
| CC1=C(C#N)C(/C=C(\Cl)c2ccc(F)cc2)C(C#N)=C(C)N1 | > 100 | > 100 | > 100 | > 100 | 86.3 | > 100 | > 100 | > 100 | > 100 | > 100 | > 100 | > 100 | > 100 | > 100 | > 100 | > 100 | > 100 | > 100 | > 100 | > 100 |
| OC(COc1ccccc1)CN1CCCCC1 (stereo unspecified) | – | > 100 | – | > 100 | – | > 100 | – | > 100 | – | > 100 | – | > 100 | – | > 100 | – | > 100 | – | > 100 | – | > 100 |
| COc1ccc(-c2n[nH]nc2-c2cc(OC)c3c(c2)OCO3)cc1 | 0.017 | – | 0.83 | > 100 | 0.0128 | 1.72 | < 0.01 | – | 0.035 | > 52.9 | < 0.015 | 8.27 | 0.0444 | > 89.7 | 0.0665 | > 100 | 20.5 | > 100 | – | – |
| CC[C@@H](O)C[C@H]1CCC[C@@]2(C[C@@H]3OC(=O)/C=C/[C@@](C)(O)[C@@H](O)[C@H](C)[C@@H](O)[C@H](OC4CCC(N(C)C)C(C)O4)[C@@H](O)[C@](C)(O)CCCCC/C=C/[C@@H]4CC(C)(C)O[C@@]4(O)C[C@H](O2)[C@H]3C)O1 (stereo partly specified) | – | 26.2 | – | 29.6 | – | 21.5 | – | 22.2 | – | 20.3 | – | 24.4 | – | 36.8 | – | 28.1 | – | 4.82 | – | 19.1 |
| COc1ccc(-c2nsc3c2NC(=O)CC3c2cccc(Cl)c2)cc1 (stereo unspecified) | 0.83 | > 100 | 10.8 | > 100 | 1.53 | 7.46 | 0.226 | 0.917 | 4.35 | > 100 | 0.743 | > 100 | 4.54 | > 100 | 5.3 | > 100 | 10.8 | > 100 | – | – |
| Nc1ccccc1C(=O)NC(=O)Nc1ccc(Oc2ncc(Br)cn2)c(Cl)c1 | – | 12.1 | – | 1.49 | 0.0035 | – | – | 0.155 | – | 4.77 | – | 9.56 | – | 18.3 | – | 51.7 | – | 25.3 | 0.0198 | 29.6 |
| COc1cc(Nc2ncnc(Nc3ccc4c(n3)NC(=O)C(C)(C)O4)n2)cc(OC)c1OC | 3.95 | > 100 | 0.297 | > 100 | 0.169 | 0.724 | 2.09 | > 100 | 10.9 | > 100 | 0.395 | > 100 | > 23.9 | > 100 | 0.602 | > 100 | 3.26 | > 100 | – | – |
| COc1cc(-c2nccc3cc4c(cc23)OCO4)cc(OC)c1OC | 4.56 | > 100 | 16.4 | > 100 | 2.45 | 79.7 | 0.411 | 3.55 | 7.08 | > 100 | 2.27 | > 100 | 16.6 | > 100 | 24.9 | > 100 | > 100 | > 100 | 7.1 | > 100 |
| CCOc1ccc(N=Cc2ccnc3ccccc23)cc1 | – | 54.3 | – | > 100 | – | > 92.2 | – | > 100 | – | > 83.7 | – | > 89.9 | – | > 100 | – | > 100 | – | > 100 | – | > 100 |
| Cn1cncc1-c1c(F)cncc1NC(=O)c1c(N)nn2cc(F)cnc12 | 2.07 | 16.3 | – | – | 6.5 | 48.6 | 0.933 | > 100 | 5.83 | > 100 | 1.52 | > 100 | 6.52 | 86.8 | 13 | > 100 | 20.9 | > 100 | 5.18 | > 100 |
| COc1cc2nc(-c3cccc4cccnc34)nc(NC3CCN(Cc4ccccc4)CC3)c2cc1OC | 0.158 | 0.338 | – | – | 1.84 | 3.56 | 1.56 | 3.08 | 0.647 | 2.64 | – | – | 1.82 | 3.6 | 1.3 | 2.73 | 2.07 | 4.1 | 1.48 | 3.3 |
| CCN(CC)c1nc(NC2CCCCC2)c2nc(N(CC)CC)nc(NC3CCCCC3)c2n1 | – | > 100 | – | > 100 | – | – | – | > 100 | – | > 100 | – | > 100 | – | > 100 | – | > 100 | – | – | – | > 100 |
